Results reported in patent publication US9586914B2, “Modulators of C3a receptors” (THE UNIVERSITY OF QUEENSLAND, priority 2011, dated 2017).

Columns and labels:
[1] = test system: human kidney tubule cells; assay: ELISA of cytokines from human kidney tubule cells; format: cell-based; settings: for IL-8: 0 μM gives 1.8 ± 0.3; for IL-6: 0 μM gives 2.4 ± 0.4; for TNF: 0 μM gives 10.1 ± 2; for GMCSF (pg/ml/ml): 0 μM gives 71.3 ± 23; for Fibronectin: 0 μM gives 75.2 ± 29
Procedure: Human renal cortical tissue (10 g) was minced finely, washed several times and agitated for 20 minutes at 37° C. in a Krebs-Henseleit buffer (KHB) containing collagenase type II (1 mg/mL), Cold KHB was added and the solution passed through a 297 μm sieve (50 Mesh, Sigma). After washing three times the tubular fragments were re-suspended in 45% percoll-KHB and centrifuged at 20000×g. A high density band, previously shown to be tubule fragments, was removed and cultured in a serum free, hormonally defined DMEM/F12 media (containing 10 ng/mL epidermal growth factor, 5 μg/mL insulin, […] transferrin, 50 nM hydrocortisone, […] prostaglandin E1, 50 nM selenium and 5 pM triiodothyronine). All experiments were performed on confluent passage 2 HTEC made quiescent by two washes followed by incubation for 24 h in serum and growth factor free DMEM/F12 media. These cells were incubated with C3aR agonists and antagonists.
Supernatant and lysates from cell culture treatment samples were collected and stored separately at −20° C. until further use. Human IL1B, IL8, IL6 and TNF levels were determined using the respective OptEIA™ ELISA kit (BD Biosciences, San Diego, USA) according to the manufacturer's instructions. The readings were recorded on a FLUOstar Optima (BMG LabTechnologies, Offenburg, Germany).

C3aR = biological target: T1, C3aR (Homo sapiens, UniProt Q16581); assay: Calcium mobilization assay in HMDM (agonist/antagonist activity); format: cell-based; settings: Table 9, Ca^2+ mobilization, HMDM
T1 construct: peripheral blood mononuclear cells were isolated from buffy coat (obtained from Australian Red Cross Blood Service, Kelvin Grove); endogenous in cells; host or cells: primary human monocyte-derived macrophages (HMDM) differentiated from CD14+ monocytes of donor buffy coat
T1 sequence (Q16581 1-482): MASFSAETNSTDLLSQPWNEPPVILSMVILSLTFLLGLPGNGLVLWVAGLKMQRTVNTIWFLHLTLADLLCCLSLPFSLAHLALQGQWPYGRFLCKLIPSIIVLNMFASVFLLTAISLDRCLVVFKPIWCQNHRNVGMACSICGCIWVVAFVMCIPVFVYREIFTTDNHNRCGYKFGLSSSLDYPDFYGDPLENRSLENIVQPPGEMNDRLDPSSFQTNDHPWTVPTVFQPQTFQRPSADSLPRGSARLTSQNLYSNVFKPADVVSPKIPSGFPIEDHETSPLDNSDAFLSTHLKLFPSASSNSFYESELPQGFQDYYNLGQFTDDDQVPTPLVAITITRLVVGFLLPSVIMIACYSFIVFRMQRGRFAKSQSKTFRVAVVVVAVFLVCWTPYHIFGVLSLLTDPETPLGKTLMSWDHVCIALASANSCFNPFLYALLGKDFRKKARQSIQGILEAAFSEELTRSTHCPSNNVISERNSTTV
Procedure, shortened: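 Human monocyte-derived macrophages, 5×10^4 cells/well, loaded 1 h at 37 °C with 4 μM Fluo-3 in HBSS/HEPES/probenecid buffer, pH 7.4. Agonist mode: calcium release read 300 s; antagonist mode: 900 s compound preincubation then agonist, read 300 s (ex 485/em 520 nm); compared with hC3a.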

pEC50 ± SEM (C3aR): 8.15 ± 0.10 | EC50 (C3aR; read-out: EC50): 7.2 nM
Compound: CC(C)C[C@H](NC(=O)c1c[nH]c2ccccc12)c1nc(C(=O)N[C@@H](CCCNC(=N)N)C(=O)O)co1 [Compound 8, 3-Indole Carboxylic Acid-Leucine-Oxazole-Arginine-OH]
IL-8 ([1]; compound 8 at 1 μM): 1.9 ± 0.4 ng/mL | IL-6 ([1]; compound 8 at 1 μM): 2.5 ± 0.1 ng/mL | TNF ([1]; compound 8 at 1 μM): 9.9 ± 1 pg/mL | GMCSF (pg/ml/ml) ([1]; compound 8 at 1 μM): 74.6 ± 7.1 pg/ml/ml | Fibronectin ([1]; compound 8 at 1 μM): 89.6 ± 11 ng/mL | IL-8 ([1]; compound 8 at 2.5 μM): 5.7 ± 2 ng/mL | IL-6 ([1]; compound 8 at 2.5 μM): 8.2 ± 0.6 ng/mL | TNF ([1]; compound 8 at 2.5 μM): 12.3 ± 1 pg/mL | GMCSF (pg/ml/ml) ([1]; compound 8 at 2.5 μM): 142.8 ± 10.9 pg/ml/ml | Fibronectin ([1]; compound 8 at 2.5 μM): 89.0 ± 5 ng/mL | IL-8 ([1]; compound 8 at 5 μM): 31.5 ± 5 ng/mL | IL-6 ([1]; compound 8 at 5 μM): 30.9 ± 2.5 ng/mL | TNF ([1]; compound 8 at 5 μM): 76.6 ± 13 pg/mL | GMCSF (pg/ml/ml) ([1]; compound 8 at 5 μM): 738.0 ± 127.6 pg/ml/ml | Fibronectin ([1]; compound 8 at 5 μM): 149.5 ± 21 ng/mL | IL-8 ([1]; compound 8 at 10 μM): 30.4 ± 8 ng/mL | IL-6 ([1]; compound 8 at 10 μM): 33.5 ± 5 ng/mL | TNF ([1]; compound 8 at 10 μM): 117.8 ± 53 pg/mL | GMCSF (pg/ml/ml) ([1]; compound 8 at 10 μM): 1056 ± 147.8 pg/ml/ml | Fibronectin ([1]; compound 8 at 10 μM): 172.9 ± 20 ng/mL | IL-8 ([1]; compound 8 at 20 μM): 76.4 ± 18 ng/mL | IL-6 ([1]; compound 8 at 20 μM): 55.8 ± 12 ng/mL | TNF ([1]; compound 8 at 20 μM): 277.9 ± 28 pg/mL | GMCSF (pg/ml/ml) ([1]; compound 8 at 20 μM): 2853 ± 399 pg/ml/ml | Fibronectin ([1]; compound 8 at 20 μM): 200.9 ± 28 ng/mL | Induction at 40 μM, Fibronectin ([1]; compound 8 at 40 μM vs 0 μM): 2-fold | Induction at 40 μM, GMCSF ([1]; compound 8 at 40 μM vs 0 μM): 80-fold | Induction at 40 μM, IL-6 ([1]; compound 8 at 40 μM vs 0 μM): 40-fold | Induction at 40 μM, IL-8 ([1]; compound 8 at 40 μM vs 0 μM): 75-fold | Induction at 40 μM, TNF ([1]; compound 8 at 40 μM vs 0 μM): 75-fold | IL-8 ([1]; compound 8 at 40 μM): 135.0 ± 9 ng/mL | IL-6 ([1]; compound 8 at 40 μM): 96.9 ± 29 ng/mL | TNF ([1]; compound 8 at 40 μM): 757.8 ± 13 pg/mL | GMCSF (pg/ml/ml) ([1]; compound 8 at 40 μM): 5790 ± 726 pg/ml/ml | Fibronectin ([1]; compound 8 at 40 μM): 148.0 ± 32 ng/mL | Secretion of inflammatory cytokines ([1]; primary human kidney cells): induces secretion of inflammatory cytokines
